Measurements from ChEMBL document CHEMBL6096732 (J Med Chem, 2025).
The source made the active and inactive calls. The calls are words filed in the database; no cut-off is given here.

Tests used:
Histone deacetylase 3 = Histone deacetylase 3 (Homo sapiens, UniProt O15379); assay: Inhibition of recombinant HDAC3 (unknown origin) using Boc-Lys(acetyl)-AMC as substrate preincubated for 1 hr followed by substrate addition and measured after 2 hrs by fluorescence based micro plate reader analysis
Histone deacetylase 7 = Histone deacetylase 7 (Homo sapiens, UniProt Q8WUI4); assay: Inhibition of recombinant HDAC7 (unknown origin) using Boc-Lys(trifluoroacetyl)-AMC as substrate preincubated for 1 hr followed by substrate addition and measured after 2 hrs by fluorescence based micro plate reader analysis
Histone deacetylase 8 = Histone deacetylase 8 (Homo sapiens, UniProt Q9BY41); assay: Inhibition of recombinant HDAC8 (unknown origin) using Boc-Lys(trifluoroacetyl)-AMC as substrate preincubated for 1 hr followed by substrate addition and measured after 2 hrs by fluorescence based micro plate reader analysis
B16-F10 = assay: Inhibition of cell migration in mouse B16-F10 cells assessed as wound area at 20 uM incubated for 24 hrs by wound healing assay (reference value: 50.36 +/- 1.68 %); format: functional; design: scale not given: the % may be the effect or the level left
[1] = biological target: T1, Histone deacetylase 3 (Mus musculus) (UniProt O88895); assay: Inhibition of HDAC3 in mouse 4T1 cells assessed as increase in histone H3 acetylation level at 5 to 20 uM incubated for 24 hrs by Western blot analysis; format: cell-based; settings: dose 5-20 µM
T1 sequence (whole entry): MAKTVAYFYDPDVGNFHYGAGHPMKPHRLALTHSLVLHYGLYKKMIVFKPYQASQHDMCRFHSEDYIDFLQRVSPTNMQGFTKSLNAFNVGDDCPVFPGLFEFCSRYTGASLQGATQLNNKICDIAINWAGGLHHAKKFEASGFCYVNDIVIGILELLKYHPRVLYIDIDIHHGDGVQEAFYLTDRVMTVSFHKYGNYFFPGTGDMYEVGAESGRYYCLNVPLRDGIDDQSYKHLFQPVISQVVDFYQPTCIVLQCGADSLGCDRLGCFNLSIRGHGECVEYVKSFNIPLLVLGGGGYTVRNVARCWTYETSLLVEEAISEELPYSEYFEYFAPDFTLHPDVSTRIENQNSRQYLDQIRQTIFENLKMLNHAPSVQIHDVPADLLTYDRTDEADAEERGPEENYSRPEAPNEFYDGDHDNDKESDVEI

4T1 [2] = assay: Effect on acetylated H3K56 expression level in mouse 4T1 cells at 5 to 20 uM incubated for 24 hrs by Western blot analysis; format: functional, cell-based; settings: dose 5-20 µM
[3] = biological target: Programmed cell death 1 ligand 1 (Mus musculus) (UniProt Q9EP73); assay: Induction of PD-L1 degradation in mouse B16-F10 cells assessed as decrease in PD-L1 protein level at 2 uM measured after 24 hrs in presence of CA-074 by Western blot analysis; format: cell-based
4T1 [4] = assay: Induction of DNA damage in mouse 4T1 cells assessed as increase in gamma-H2AX expression at 2 uM incubated for 24 hrs by Western blot analysis; format: functional, cell-based
[5] = VRT (0 to t) in male Sprague-Dawley rat at 2 mg/kg, iv measured after 12 hrs by LC-MS/MS analysis; format: ADME, organism-based; settings: in vivo
[6] = Cmax in male Sprague-Dawley rat at 2 mg/kg, iv measured after 12 hrs by LC-MS/MS analysis; format: ADME, organism-based; settings: in vivo
[7] = AUC (0 to 12 hrs) in male Sprague-Dawley rat at 20 mg/kg, po measured after 12 hrs by LC-MS/MS analysis; format: ADME, organism-based; settings: in vivo
Mus musculus = assay: Effect on acetylated alpha-tubulin level in male C57BL/6 mouse tumor implanted with mouse B16-F10 cells at 50 mg/kg, po administered once daily via gavage for 14 days by Western blot analysis; format: functional, organism-based; settings: time 14.0 day
[8] = biological target: T1, Histone deacetylase 3 (Mus musculus); assay: In vivo inhibition of HDAC3 in male C57BL/6 mouse model implanted with mouse B16-F10 cells assessed as increase in acetylated histone H3 level in tumor at 50 mg/kg, po administered once daily via gavage for 14 days by DAPI staining based immunofluorescence analysis; format: functional, organism-based; settings: time 14.0 day
[9] = Toxicity in female BALB/c mouse model implanted with mouse 4T1 cells assessed as effect on body weight administrated orally as once daily dose via gavage for 14 days; settings: in vivo, po, 336 h, time 14 day
4T1 [10] = assay: Antitumor activity against mouse 4T1 cells implanted in female BALB/c mouse model assessed as induction of DNA damage by measuring increase in gamma-H2AX expression in tumor co-administrated orally with olaparib as once daily dose via gavage for 14 days by Western blot analysis; format: functional, cell-based; settings: route po, time 14.0 day
[11] = biological target: T2, Protein deacetylase HDAC6 (Homo sapiens) (UniProt Q9UBN7); settings: dose 500.0 nM, time 3.0 hrs
T2 sequence (whole entry): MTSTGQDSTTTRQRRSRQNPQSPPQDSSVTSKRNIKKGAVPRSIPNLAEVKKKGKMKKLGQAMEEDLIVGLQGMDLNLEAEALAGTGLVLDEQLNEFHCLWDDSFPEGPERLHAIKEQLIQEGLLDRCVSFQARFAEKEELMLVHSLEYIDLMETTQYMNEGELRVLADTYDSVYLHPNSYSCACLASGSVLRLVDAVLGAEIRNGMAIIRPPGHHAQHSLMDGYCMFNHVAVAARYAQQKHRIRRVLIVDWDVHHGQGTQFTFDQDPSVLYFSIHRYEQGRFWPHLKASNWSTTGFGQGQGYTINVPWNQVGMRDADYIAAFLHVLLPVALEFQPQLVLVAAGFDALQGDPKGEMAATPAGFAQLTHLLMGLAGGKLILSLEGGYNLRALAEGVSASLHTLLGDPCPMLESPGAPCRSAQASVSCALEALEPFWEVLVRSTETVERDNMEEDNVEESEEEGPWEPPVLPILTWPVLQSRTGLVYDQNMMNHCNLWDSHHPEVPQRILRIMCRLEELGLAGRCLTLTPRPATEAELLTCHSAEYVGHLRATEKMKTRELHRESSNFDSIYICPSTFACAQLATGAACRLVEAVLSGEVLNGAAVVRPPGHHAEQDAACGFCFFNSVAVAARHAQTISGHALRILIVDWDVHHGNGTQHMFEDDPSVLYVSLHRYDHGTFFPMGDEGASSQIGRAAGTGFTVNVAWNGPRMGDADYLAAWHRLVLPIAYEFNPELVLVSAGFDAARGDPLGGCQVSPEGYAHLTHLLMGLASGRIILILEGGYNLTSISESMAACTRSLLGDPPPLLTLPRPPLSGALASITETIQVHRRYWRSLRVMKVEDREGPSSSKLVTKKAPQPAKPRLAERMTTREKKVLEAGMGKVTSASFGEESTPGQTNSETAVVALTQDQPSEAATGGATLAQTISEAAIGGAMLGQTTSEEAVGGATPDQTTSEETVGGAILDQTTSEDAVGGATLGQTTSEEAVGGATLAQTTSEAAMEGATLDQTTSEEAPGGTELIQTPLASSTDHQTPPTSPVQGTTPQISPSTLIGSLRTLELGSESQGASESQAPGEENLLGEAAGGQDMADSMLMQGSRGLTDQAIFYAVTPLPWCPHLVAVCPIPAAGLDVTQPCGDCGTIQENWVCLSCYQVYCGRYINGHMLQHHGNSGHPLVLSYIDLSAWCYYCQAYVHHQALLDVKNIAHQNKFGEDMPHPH

Sequence of Programmed cell death 1 ligand 1 (Mus musculus) (Q9EP73 whole entry): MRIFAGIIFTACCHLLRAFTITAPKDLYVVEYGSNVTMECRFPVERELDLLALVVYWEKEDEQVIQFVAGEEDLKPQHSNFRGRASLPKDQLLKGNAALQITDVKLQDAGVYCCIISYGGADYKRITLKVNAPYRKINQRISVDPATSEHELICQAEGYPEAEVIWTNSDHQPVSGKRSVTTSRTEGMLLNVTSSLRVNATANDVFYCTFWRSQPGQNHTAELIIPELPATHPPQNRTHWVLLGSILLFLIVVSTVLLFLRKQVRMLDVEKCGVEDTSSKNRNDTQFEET
Sequence of Histone deacetylase 3 (O15379 whole entry): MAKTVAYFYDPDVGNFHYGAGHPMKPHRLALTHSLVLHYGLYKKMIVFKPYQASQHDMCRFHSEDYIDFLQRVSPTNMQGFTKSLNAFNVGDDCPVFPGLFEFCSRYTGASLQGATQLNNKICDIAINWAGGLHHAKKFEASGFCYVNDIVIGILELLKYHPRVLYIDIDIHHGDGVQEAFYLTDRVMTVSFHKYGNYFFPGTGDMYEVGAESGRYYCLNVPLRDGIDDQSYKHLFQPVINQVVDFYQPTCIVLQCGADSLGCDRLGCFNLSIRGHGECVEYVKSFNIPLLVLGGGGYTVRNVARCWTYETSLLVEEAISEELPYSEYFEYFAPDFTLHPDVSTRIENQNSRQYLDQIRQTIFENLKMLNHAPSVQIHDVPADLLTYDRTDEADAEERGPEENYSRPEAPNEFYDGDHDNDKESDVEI
Sequence of Histone deacetylase 7 (Q8WUI4 whole entry): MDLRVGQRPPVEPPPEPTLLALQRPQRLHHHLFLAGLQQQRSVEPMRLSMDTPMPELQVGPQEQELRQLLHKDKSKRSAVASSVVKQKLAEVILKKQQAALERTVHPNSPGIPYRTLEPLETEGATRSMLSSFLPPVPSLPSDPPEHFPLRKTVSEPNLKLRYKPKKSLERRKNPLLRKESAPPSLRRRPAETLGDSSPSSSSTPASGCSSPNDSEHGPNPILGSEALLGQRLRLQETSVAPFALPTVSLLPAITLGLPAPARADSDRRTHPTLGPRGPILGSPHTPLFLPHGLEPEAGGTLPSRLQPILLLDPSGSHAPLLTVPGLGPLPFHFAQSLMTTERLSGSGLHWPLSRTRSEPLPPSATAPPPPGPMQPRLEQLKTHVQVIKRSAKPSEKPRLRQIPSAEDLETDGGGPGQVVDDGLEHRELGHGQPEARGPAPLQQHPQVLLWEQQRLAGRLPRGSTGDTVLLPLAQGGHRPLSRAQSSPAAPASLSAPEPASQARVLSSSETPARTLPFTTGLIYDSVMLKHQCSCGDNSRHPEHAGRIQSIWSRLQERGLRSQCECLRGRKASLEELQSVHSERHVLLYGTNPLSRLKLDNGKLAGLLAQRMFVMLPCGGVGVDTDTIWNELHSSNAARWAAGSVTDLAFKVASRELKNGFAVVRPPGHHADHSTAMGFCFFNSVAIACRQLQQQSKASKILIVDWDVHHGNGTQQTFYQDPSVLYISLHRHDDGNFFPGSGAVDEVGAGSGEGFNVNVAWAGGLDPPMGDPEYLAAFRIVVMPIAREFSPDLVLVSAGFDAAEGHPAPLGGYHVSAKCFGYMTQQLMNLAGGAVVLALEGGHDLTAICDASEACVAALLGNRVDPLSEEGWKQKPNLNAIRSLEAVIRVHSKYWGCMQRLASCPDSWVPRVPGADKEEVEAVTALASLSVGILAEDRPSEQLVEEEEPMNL
Sequence of Histone deacetylase 8 (Q9BY41 whole entry): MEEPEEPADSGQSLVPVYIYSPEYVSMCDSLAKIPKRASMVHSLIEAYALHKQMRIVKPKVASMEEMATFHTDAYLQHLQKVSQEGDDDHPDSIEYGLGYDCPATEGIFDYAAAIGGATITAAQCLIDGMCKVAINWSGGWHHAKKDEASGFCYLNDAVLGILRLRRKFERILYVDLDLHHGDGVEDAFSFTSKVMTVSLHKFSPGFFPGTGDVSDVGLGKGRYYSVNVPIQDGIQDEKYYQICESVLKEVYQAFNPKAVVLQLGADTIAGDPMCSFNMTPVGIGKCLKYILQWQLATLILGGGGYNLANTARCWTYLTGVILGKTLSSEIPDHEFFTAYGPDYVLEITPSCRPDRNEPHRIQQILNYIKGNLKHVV

IC50 (Histone deacetylase 3): 0.042 µM | IC50 (Histone deacetylase 7): > 10 µM | IC50 (Histone deacetylase 8): > 10 µM | inhibition [1]: Active | VRT(t) [5]: 0.641 hr2 | Cmax [6]: 1040 ng/mL | AUC(0-t) at 12 h [7]: 7830 ng·h/mL | inhibition [8]: Active | inhibition [11]: 17%
Structure (SMILES): CCCNNC(=O)c1ccc(Cn2c3ccccc3c3c(-c4ccccn4)nc4ccccc4c32)cc1
Activity (B16-F10): 5.9% | Activity (4T1 [2]): inactive | Activity [3]: Not active; Ctsb-Mediated Lysosomal Degradation Mechanism Is Observed | Activity (4T1 [4]): Active | Activity (Mus musculus): inactive | Activity [9]: Non-toxic | Activity (4T1 [10]): Active
